Measurements reported in patent US20060057669A1, “Inactive transcription factor tif-ia and uses thereof” (priority 2002, published 2006).

Key:
[1] = test system: pre-rRNA synthesis in NIH3T3 cells; experiment: Northern blot of cellular pre-rRNA after mitogenic stimulation; format: cell-based; details: starved NIH3T3 cells stimulated by serum, bFGF, EGF or TPA; 40 μM PD98059, 30 min
Protocol: (C) PD98059 inhibits mitogenic stimulation of Pol I transcription. NIH3T3 cells were starved in DMEM/0.1% FCS for 12 hr before stimulation by serum, 10 ng/ml bFGF, 50 ng/ml EGF or 0.1 μM TPA in the absence or presence of 40 μM PD98059 for 30 min. Cellular RNA was isolated and the level of pre-rRNA, c-jun mRNA and cytochrome C oxidase (cox) mRNA was monitored on Northern blots.
NIH3T3, HEK293T and CLL39 cells were cultured in Dulbecco's modified Eagles medium (DMEM) supplemented with 10% fetal calf serum. Cells were transfected with 5 μg of DNA per 10^6 cells using the calcium phosphate DNA coprecipitation method. Total RNA was isolated after 48 h and analyzed on Northern blots as described (Voit et al., EMBO J. 18 (1999), 1891-1899). Cellular pre-rRNA levels were monitored by hybridization to antisense RNA complementary to the first 155 nucleotides of unprocessed 45S pre-RNA. Transcripts from the rDNA reporter plasmid were monitored by hybridization to a riboprobe that is complementary to pUC sequences inserted between the rDNA promoter and terminator sequences of pMrl930-BH. […] Transcripts from the rDNA reporter plasmid were monitored by hybridization to a riboprobe that is complementary to pUC sequences inserted between the rDNA promoter and terminator sequences of pMrl930-BH. […]

[2] = test system: TIF-IA; experiment: Western blot of TIF-IA and Pol I in stimulated NIH3T3 cells; format: cell-based; details: 40 μM PD98059, 30 min
Protocol: Serum-starved NIH3T3 cells were stimulated for 30 min by 10% serum, 10 ng bFGF, 50 ng/ml EGF or 0.1 μM TPA in the absence or presence of 40 μM PD98059. A Western blot is shown with 50 μg lysate proteins and antibodies against unphosphorylated and phosphorylated ERK1/2 as well as Pol I (RPA116) and TIF-IA.
Similarly, the amount of both Pol I and TIF-IA remained the same in quiescent and serum-stimulated cells. On Western blots, TIF-IA from growing and quiescent cells appears as a closely spaced double-band (indicated by a dot and asterisk in FIG. 1B) that corresponds to differently phosphorylated forms of TIF-IA. After mitogenic stimulation, the faster migrating form was converted into the more slowly migrating TIF-IA moiety. The shift in electrophoretic mobility correlated with cellular pre-rRNA synthetic activity, i.e., was predominant 20-30 min after mitogenic stimulation and returned to normal levels after 2 hr. Activation of pre-rRNA synthesis and decrease in the electrophoretic mobility of TIF-IA was also observed after stimulation of quiescent cells with growth factors, e.g. bFGF, or EGF, or with the phorbol ester TPA (FIGS. 1C and D), a potent stimulus of the Ras-ERK pathway, through activation of protein kinase C.

[3] = test system: Pol I transcription; experiment: Complementation of Pol I transcription in nuclear extracts from PD98059-treated FM3A cells; format: biochemical
Protocol: (C) TIF-IA, but not UBF, rescues Pol I transcription in extracts from PD98059-treated cells. Nuclear extracts from untreated or PD98059-treated FM3A cells were supplemented with 20 and 40 ng of purified TIF-IA and/or UBF (10 ng in lanes 7 and 9, 50 ng in lanes 3, 8 and 10).
(D) TIF-IA activates transcription in extracts from PD98059-treated cells in the presence of AMP-PNP and GMP-PNP. Nuclear extracts from PD98059-treated FM3A cells were supplemented with 40 ng of purified TIF-IA and assayed in the standard transcription system containing ATP and GTP (ATP, lanes 1, 2) or AMP-PNP and GMP-PNP (AMP-PNP, lanes 3, 4)
(D) ERK/RSK-dependent phosphorylation activates Pol I transcription in vitro. Nuclear extracts from PD98059-treated FM3A cells were supplemented with 40 ng of TIF-IA, 10 ng of HA-RSK, or 10 ng of HA-ERK as indicated, and transcriptional activity was assayed in the standard transcription system containing ATP and GTP (lanes 4-8) or AMP-PNP and GMP-PNP (lanes 9-13).
Nuclear extracts were prepared from exponentially growing (8×10^5 cells/ml), density-arrested or PD98059-treated (CN Bioscience, Bad Soden, Germany) 40 μM, 0.5 hr) or rapamycin-treated FM3A cells (ATCC, Manassas, USA). 25 μl assays contained 50 ng of template DNA (pMr600/EcoRI), 30 μg nuclear extract proteins and 12 mM Hepes-KOH, [pH8.0], 0.1 mM EDTA, 5 mM MgCl2, 80 mM KCl, 10 mM creatine phosphate, 12% (v/v) glycerol, 0.66 mM each of ATP, GTP and CTP, 0.01 mM UTP and 0.5 μCi [α-^32P]UTP (5000 Ci/mmol). After incubation for 60 min at 30° C., RNA was extracted and analyzed on non-denaturing 5% polyacrylamide gels
To test whether both TIF-IA and UBF, or TIF-IA alone, were targeted by ERK-mediated phosphorylation, nuclear extracts from untreated and PD98059-treated cells were assayed for rDNA transcription in the absence and presence of exogenous TIF-IA or UBF (FIG. 2C). If both UBF and TIF-IA were inactivated by PD98059, rescue of Pol I transcriptional activity would require both factors, whereas TIF-IA alone would be sufficient if it was the only factor that is inactivated by inhibition of the ERK pathway. […]

Compound	effect on serum- and growth factor-induced pre-rRNA synthesis [1]	effect on electrophoretic mobility shift of TIF-IA after stimulation [2]	effect on the amount of Pol I and TIF-IA [2]	rescue of Pol I transcription in extracts from PD98059-treated cells ([3]; in the presence of AMP-PNP and GMP-PNP)	rescue of Pol I transcription in extracts from PD98059-treated cells ([3]; standard transcription system containing ATP and GTP)
COc1cccc(-c2cc(=O)c3ccccc3o2)c1N [PD98059]	blocked serum- and growth factor-induced stimulation of pre-rRNA synthesis	prevented the electrophoretic mobility shift of TIF-IA	does not affect the amount of Pol I and TIF-IA	–	–
TIF-IA: wild-type human transcription initiation factor TIF-IA, accession No. AJ272050	–	–	–	activation of Pol I transcription by TIF-IA was also observed	rescued
